Results: patent publication US4156731A, “Heterocyclic oxime compounds and carbamoyloxime derivatives” (priority 1976, dated 1979)

Assays:
[1] = tested on: two spotted mite (Tetranychus urticae Koch); assay: Mite Foliage Spray Test; format: in vivo; parameters: key: A: Excellent control; B: Partial control; C: No control; conditions: 500 ppm foliage spray, six days
Procedure: (§1) Selected species of the new compounds were evaluated to determine their pesticidal activity against mites and certain insects, including anaphid, a caterpillar, a beetle and a fly.
(§2) Suspensions of the test compounds were prepared by dissolving one gram of compound in 50 milliliters of acetone in which had been dissolved 0.1 gram (10 percent of the weight of compound) of an alkylphenoxy polyethoxyethanol surfactant, as an emulsifying or dispersing agent. The resulting solution was mixed into 150 milliliters of water to give roughly 200 milliliters of a suspension containing the compound in finely divided form. The thus-prepared stock suspension contained 0.5 percent by weight of test compound. The test concentrations in parts per million by weight employed in the tests described hereinbelow were obtained by appropriate dilutions of the stock suspension with water. The test procedures were as follows:
Adults and nymphal stages of the two spotted mite (Tetranychus urticae Koch), reared on Tendergreen bean plants at 80±5 per cent relative humidity, were the test organisms. Infested leaves from a stock culture were placed on the primary leaves of two bean plants six to eight inches in height, growing in a two-and-a-half inch clay pot. 150-200 mites, a sufficient number for testing, transferred from the excised leaves to the fresh plants in a period of twenty four hours. Following the twenty four hour transfer period, the excised leaves were removed from the infested plants. The test compounds were formulated by diluting the stock suspension with water to give a suspension with water to give a suspension containing 500 parts of test compound per million parts of final formulation. The potted plants (one pot per compound) were placed on a revolving turntable and sprayed with 100-110 milliliters of test compound formulation by use of a DeVilbiss spray gun set at 40 psig. air pressure. This application, which lasted for 25 seconds, was sufficient to wet the plants to run-off. As a control, 100-110 milliliters of a water solution containing acetone and emulsifier in the same concentrations as the test compound formulation, but containing no test compound, were also sprayed on infested plants. The sprayed plants were held at 80±5 per cent relative humidity for six days, after which a mortality count of motile forms were made. Microscopic examination for motile forms was made on the leaves of the test plants. Any individual which was capable of locomotion upon prodding, was considered living.
(§3) In these tests the pesticidal activity of the compounds against aphid, mite, Southern Armyworm, Mexican Bean Beetle, and house fly was rated as follows: […]

[2] = tested on: southern armyworm (Prodenia Eridania, (Cram.)); assay: Southern Armyworm Leaf Spray Test; format: in vivo; parameters: key: A: Excellent control; B: Partial control; C: No control; conditions: larvae, 500 ppm leaf spray, three days
Procedure: as §1, §2
Southern Armyworm Leaf Spray Test
Larvae of the southern armyworm (Prodenia Eridania, (Cram.), reared on Tendergreen bean plants at a temperature of 80°±5° F. and a relative humidity of 50±5 per cent, constituted the test insects.
The test compounds were formulated by diluting the stock suspension with water to give a suspension containing 500 parts of test compound per million parts of final formulation. Potted Tendergreen bean plants of standard height and age were placed on a revolving turntable and sprayed with […] of test compound formulation by use of a DeVilbiss spray gun set at 10 psig. air pressure.
This application, which lasted 25 seconds, was sufficient to wet plants to run-off. As a control, 100-110 milliliters of a water-acetone-emulsifier solution containing no test compound were also sprayed on infested plants. When dry, the paired leaves were separated and each one was placed in a 9 centimeter Petric dish lined with moistened filter paper. Five randomly selected larvae were introduced into each dish and the dishes were closed. The closed dishes were labeled and held at 80°-85° F. for three days. Although the larvae could easily consume the whole leaf within twenty-four hours, no more food was added. Larvae which were unable to move the length of the body, even upon stimulation by prodding, were considered dead. Per cent mortality was recorded for various concentration levels.
as §3

[3] = Peroral toxicity to mammals (rat); conditions: in vivo, po, mortality rate of 50 percent, read-out: A. O. Rat LD50
Procedure: Certain of these compositions were also evaluated to determine their peroral toxicity to mammals. The animal selected for this experiment was the rat.

[4] = tested on: house flies (Musca domestica, L.); assay: Fly Bait Test; format: in vivo; parameters: key: A: Excellent control; B: Partial control; C: No control; conditions: adults, 500 ppm in sugar bait, twenty four hours
Procedure: as §1, §2
Four to six day old adult house flies (Musca domestica, L.) reared according to the specifications of the Chemical Specialities Manufacturing Association (Blue Book, McNair-Dorland Co., NY., 1954; pages 234-244, 261) under controlled conditions of 80°±5° F. and 50±5 per cent relative humidity, were the test insects. The flies were immobilized by anesthetizing with carbon dioxide and twenty five immobilized individuals, males and females, were transferred to a cage consisting of a standard food stainer about five inches in diameter which was inverted over a wrapping-paper-covered surface. The test compounds were formulated by diluting the stock suspension with a 10 per cent (by weight) sugar solution to give a suspension containing 500 parts of test compound per million parts of final formulation, by weight. Ten milliliters of the test formulation were added to a souffle cup containing a one inch square of an absorbent cotton pad. This bait cup was introduced and centered on the blotting paper under the food strainer prior to admitting the anesthetized flies. The caged flies were allowed to feed on the bait for twenty four hours, at a temperature of 80°±5° F. and the relative humidity of 50±5 per cent.
as §3

[5] = tested on: Mexican bean beetle (Epilachna varivestis, Muls.); assay: Mexican Bean Beetle Leaf Spray Test; format: in vivo; parameters: key: A: Excellent control; B: Partial control; C: No control; conditions: fourth instar larvae, 500 ppm leaf spray, three days
Procedure: as §1, §2
Mexican Bean Beetle Leaf Spray Test
Fourth instar larvae of the Mexican bean beetle (Epilachna varivestis, Muls.), reared on Tendergreen bean plants at a temperature of 80°±5° F. and 50±5 per cent relative humidity, were the test insects.
The test compounds were formulated by diluting the stock suspension with water to give a suspension containing 500 parts of test compound per million parts of final formulation. Potted Tendergreen bean plants of standard height and age were placed on a revolving turntable and sprayed with 100-110 milliliters of test compound formulation by use of DeVilbiss spray gun set at 10 psig air pressure. This application, which lasted 25 seconds, was sufficient to wet plants to run-off. As a control, 100-110 milliliters of a water-acetone-emulsifier solution containing no test compound were also sprayed on infested plants. When dry, the paired leaves were separated and each was placed in a 9 centimeter Petri dish lined with moistened filter paper. Five randomly selected larvae were introduced into each dish, and the dishes were closed. The closed dishes were labeled and held at a temperature of […]. for three days. Although the larvae could easily consume the leaf within 24 to 48 hours, no more food was added. Larvae which were unable to move the length of the body, even upon stimulation, were considered dead.
as §3

[6] = tested on: bean aphid (Aphis fabae Scop.); assay: Bean Aphid Foliage Spray Test; format: in vivo; parameters: key: A: Excellent control; B: Partial control; C: No control; conditions: 500 ppm foliage spray, 24 hour holding period
Procedure: as §1, §2
Bean Aphid Foliage Spray Test
Adults and nymphal stages of the bean aphid (Aphis fabae Scop.) reared on potted dwarf nasturtium plants at 65°-70° F. and 50-70 per cent relative humidity, constituted the test insects. For testing purposes, the number of aphids per pot was standardized to 100-150 by trimming plants containing excess aphids.
The test compounds were formulated by diluting the stock suspension with water to give a suspension containing 500 parts of test compound per million parts of final formulation.
The potted plants (one pot per compound tested) infested with 100-150 aphids, were placed on a revolving turntable and sprayed with 100-110 milliliters of test compound formulation by use of a DeVilbiss spray gun set at 40 psig. air pressure. This application, which lasted 25 seconds, was sufficient to wet the plants to run-off. As a control, 100-110 milliliters of a water-acetone-emulsifier solution containing no test compound were also sprayed on infested plants. After spraying, the pots were placed on their sides on a sheet of white standard mimeograph paper which had been previously ruled to facilitate counting. Temperature and humidity in the test room during the 24 hour holding period were 65°-70° F. and 50-70 per cent, respectively. Aphids which fell into the paper and were unable to remain standing after being uprighted were considered dead. Aphids remaining on the plants wre observed closely for movement and those which were unable to move the length of the body upon stimulator by prodding were considered dead. Per cent mortality was recorded for various concentration levels.
as §3

SMILES: CNC(=O)ON=C1SC(=NN(C)C)SC1(C)C [LV]
- Mite pesticidal activity rating [1]: A
- Southern Armyworm pesticidal activity rating [2]: A
- LD50 [3]: 1.8 mg/kg
- House-Fly pesticidal activity rating [4]: A
- Mexican Bean Beetle pesticidal activity rating [5]: A
- Bean Aphid pesticidal activity rating [6]: A

SMILES: CN(SC(Cl)(Cl)Cl)C(=O)ON=C1SC(=C(C#N)C#N)SC1(C)C [LXIII]
- Mite pesticidal activity rating [1]: C
- Southern Armyworm pesticidal activity rating [2]: C
- LD50 [3]: 538 mg/kg
- House-Fly pesticidal activity rating [4]: C
- Mexican Bean Beetle pesticidal activity rating [5]: A
- Bean Aphid pesticidal activity rating [6]: A

SMILES: CNC(=O)ON=C1SC(=NC(C)(C)C)SC1(C)C [L]
- Mite pesticidal activity rating [1]: A
- Southern Armyworm pesticidal activity rating [2]: B
- LD50 [3]: 31.5 mg/kg
- House-Fly pesticidal activity rating [4]: A
- Mexican Bean Beetle pesticidal activity rating [5]: A
- Bean Aphid pesticidal activity rating [6]: A

SMILES: CN=C1SC(=NOC(=O)NC)C(C)(C)S1 [XL, 5,5-Dimethyl-2-methylimino-4-[O-(N-methylcarbamoyl)oximino]-1,3-dithiolane]
- Mite pesticidal activity rating [1]: A
- Southern Armyworm pesticidal activity rating [2]: B
- House-Fly pesticidal activity rating [4]: A
- Mexican Bean Beetle pesticidal activity rating [5]: A
- Bean Aphid pesticidal activity rating [6]: A

SMILES: CCN=C1SC(=NOC(=O)N(C)SC(Cl)(Cl)Cl)C(C)(C)S1 [XLI, 5,5-Dimethyl-2-ethylimino-4-[[O-[N-methyl-N-(trichloromethanesulfenyl)carbamoyl]oximino]]-1,3-dithiolane]
- Mite pesticidal activity rating [1]: A
- Southern Armyworm pesticidal activity rating [2]: B
- House-Fly pesticidal activity rating [4]: A
- Mexican Bean Beetle pesticidal activity rating [5]: A
- Bean Aphid pesticidal activity rating [6]: A

SMILES: CN(C)C(=O)ON=C1SC(=C(C#N)C#N)SC1(C)C [XLIII, 5,5-Dimethyl-2-(dicyanomethylidene)-4-[O-(N,N-dimethylcarbamoyl)oximino]-1,3-dithiolane]
- Mite pesticidal activity rating [1]: C
- Southern Armyworm pesticidal activity rating [2]: C
- House-Fly pesticidal activity rating [4]: B
- Mexican Bean Beetle pesticidal activity rating [5]: B
- Bean Aphid pesticidal activity rating [6]: B

SMILES: CN(C)N=C1SC(=NOC(=O)N(C)SSC(C)(C)C)C(C)(C)S1 [XLII]
- Mite pesticidal activity rating [1]: A
- Southern Armyworm pesticidal activity rating [2]: A
- House-Fly pesticidal activity rating [4]: A
- Mexican Bean Beetle pesticidal activity rating [5]: A
- Bean Aphid pesticidal activity rating [6]: A

SMILES: CC(C)N=C1SC(=NOC(=O)N(C)SN(C)C(=O)ON=C2SC(=NC(C)C)SC2(C)C)C(C)(C)S1 [XLIV, N,N'-Bis-[[5,5-Dimethyl-2-isopropylimino-4-[O-(N-methylcarbamoyl)oximino]-1,3-dithiolane]] sulfide]
- Mite pesticidal activity rating [1]: C
- Southern Armyworm pesticidal activity rating [2]: C
- LD50 [3]: 113 mg/kg
- House-Fly pesticidal activity rating [4]: B
- Mexican Bean Beetle pesticidal activity rating [5]: A
- Bean Aphid pesticidal activity rating [6]: B

SMILES: CC(C)N=C1SC(=NOC(=O)N(C)SSC(C)(C)C)C(C)(C)S1 [XLIX]
- Mite pesticidal activity rating [1]: A
- Southern Armyworm pesticidal activity rating [2]: C
- House-Fly pesticidal activity rating [4]: A
- Mexican Bean Beetle pesticidal activity rating [5]: A
- Bean Aphid pesticidal activity rating [6]: A

SMILES: CC(C)N=C1SC(=NOC(=O)N(C)SC(Cl)(Cl)Cl)C(C)(C)S1 [XLVIII]
- Mite pesticidal activity rating [1]: A
- Southern Armyworm pesticidal activity rating [2]: C
- LD50 [3]: 226 mg/kg
- House-Fly pesticidal activity rating [4]: A
- Mexican Bean Beetle pesticidal activity rating [5]: A
- Bean Aphid pesticidal activity rating [6]: A

SMILES: CNC(=O)ON=C1SC(=NC(C)C)SC1(C)C [XLVII]
- Mite pesticidal activity rating [1]: A
- Southern Armyworm pesticidal activity rating [2]: C
- LD50 [3]: 8.9 mg/kg
- House-Fly pesticidal activity rating [4]: A
- Mexican Bean Beetle pesticidal activity rating [5]: A
- Bean Aphid pesticidal activity rating [6]: A

SMILES: CN=C1SC(=NOC(=O)N(C)SC(Cl)(Cl)Cl)C(C)(C)S1 [XLV]
- Mite pesticidal activity rating [1]: A
- Southern Armyworm pesticidal activity rating [2]: A
- House-Fly pesticidal activity rating [4]: A
- Mexican Bean Beetle pesticidal activity rating [5]: A
- Bean Aphid pesticidal activity rating [6]: A
